In paper PMC10877733, “Discovery and Characterization of VU0542270, the First Selective Inhibitor of Vascular Kir6.1/SUR2B KATP Channels” (Molecular Pharmacology, 2024):

How the values were obtained:
Kir2.3 = molecular target: T1, Kir2.3 (Homo sapiens, UniProt P48050); test: Thallium flux selectivity assay Kir2.3; format: cell-based
T1 construct: expressed in transfected cells
T1 sequence (P48050 1-445): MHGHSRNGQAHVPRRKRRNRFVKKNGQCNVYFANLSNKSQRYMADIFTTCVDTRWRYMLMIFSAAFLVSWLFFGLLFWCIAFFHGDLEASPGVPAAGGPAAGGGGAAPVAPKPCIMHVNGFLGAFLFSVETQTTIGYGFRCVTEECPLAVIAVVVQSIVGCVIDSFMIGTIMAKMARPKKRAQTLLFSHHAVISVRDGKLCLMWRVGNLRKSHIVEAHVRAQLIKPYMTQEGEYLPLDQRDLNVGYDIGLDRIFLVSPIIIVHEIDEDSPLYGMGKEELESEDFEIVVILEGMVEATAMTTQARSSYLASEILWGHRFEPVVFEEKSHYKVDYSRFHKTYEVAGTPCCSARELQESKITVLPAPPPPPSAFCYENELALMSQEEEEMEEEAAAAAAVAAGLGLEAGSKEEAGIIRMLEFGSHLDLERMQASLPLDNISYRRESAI
Protocol: Quantitative thallium flux assays of Kir6.1/SUR2B activity were performed essentially as described previously for Kir6.2/SUR1 ([Raphemot et al., 2014]; [Kharade et al., 2019]). Stable T-Rex-HEK293-Kir6.1/SUR2B cells or transiently transfected HEK293T cells were plated in polyamine-coated, clear-bottomed, black-walled 384-well plates and were cultured (37°C/5% CO2) overnight in Dulbecco’s modified Eagle’s medium (Gibco, Carlsbad, CA, 11995-065) containing 10% FBS (2 mM Penicillin-Streptomycin). The following day, cells were washed with assay buffer (i.e., Hanks’ balanced salt solution/20 mM HEPES) and loaded for 1 hour with thallium sensor dye Brilliant Thallium (Ion Bioscience, San Marcos, TX) at room temperature. Dye-loaded cells were washed with assay buffer and transferred to a Panoptic Kinetic Imaging Plate Reader (Wavefront Bioscience, Franklin, TN). Control and test compound treatments were for 4 minutes prior to adding 0.5 mM chloride-free thallium stimulus buffer (Ion Bioscience) to initiate thallium flux. […] Selectivity assays against other Kir channels were performed essentially as described previously ([Kharade et al., 2018]; [McClenahan et al., 2022]).

[1] = Brain homogenate binding by equilibrium dialysis, rat; format: in vitro ADME; settings: read-out: Fu, brain (rat)
Protocol: Determination of VU0542270 fu in […] from mouse and rat was conducted using the same methodology and procedure as described for plasma protein binding assay with the following modifications: 1) a final compound concentration of 1 μM was used, and 2) naïve rat brains were homogenized in DPBS (1:3 composition of brain:DPBS, w/w) using a Mini-Bead Beater machine to obtain brain homogenate.
The diluted fraction unbound (fu2) in brain was calculated as (analyte to IS MS peak area ratio from Trans-buffer side)/(analyte to IS MS peak area ratio from Cis-brain homogenate side). Undiluted fraction unbound for the brain was calculated using the following equation: [drawing 1]
Mean values for each species were calculated from three replicates.

[2] = Rat intravenous pharmacokinetics; format: in vivo; settings: for MRT: iv
Protocol: All animal housing and experimental procedures were approved by the Vanderbilt University Animal Care and Use committee and followed the guidelines set forth by the Guide for the Care and Use of Laboratory Animals. VU0542270 was formulated as a solution in ethanol, PEG400, and saline (1:4:5 v/v, respectively) at a concentration of 1 mg/mL and administered as a single 1-mg/kg IV dose (1 mL/kg) to male Sprague Dawley rats (n = 2; between 366–418 g body weights) via injection into a surgically implanted jugular vein catheter. Blood samples were collected serially from a surgically implanted carotid artery catheter in each animal over multiple postadministration time points (0.033, 0.117, 0.25, 0.5, 1, 2, 4, 7, and 24 hours) into chilled K2EDTA anticoagulant-fortified tubes and immediately placed on wet ice. The blood samples were then centrifuged [1700 relative centrifugal force (rcf), 5 minutes, 4°C] to obtain plasma samples, which were stored at −80°C until analysis by liquid chromatography tandem mass spectrometry (LC-MS/MS). The intravenous pharmacokinetic (PK) data were used for the calculation of relevant intravenous pharmacokinetic parameters [plasma clearance (CLp), volume of steady state, elimination half-life (t1/2), and mean residence time]. In vivo pharmacokinetic parameters of VU0542270 were determined from the observed individual animal time-versus-concentration data using noncompartmental analysis via WinNonlin (WNL; v.5.3, Pharsight Corp., Mountain View, CA.).
Plasma samples from the in-life phases of the studies were thawed at ambient temperature (benchtop), and then aliquots (20 µL per sample) were transferred to a 96-shallow-well (V-bottom) plate. Matrix-matched quality-control samples and a standard curve of VU0542270 (1 mg/mL DMSO stock solution) were prepared in blank rat plasma (K2EDTA treated) or blank brain homogenate via serial dilution and transferred (20 µL each) to the plate along with multiple blank plasma and brain homogenate samples. Acetonitrile (120 µL) containing internal standard (50 nM carbamazepine) was added to each well of the plate to precipitate protein. The plate was then centrifuged (4000 rcf, 5 minutes, ambient temperature), and resulting supernatants (60 µL each) were transferred to a new 96-shallow-well (V-bottom) plate containing an equal volume (60 µL per well) of water (Milli-Q purified). The plate was then sealed in preparation for LC-MS/MS analysis (see below).
Prepared samples were injected (10 µL each) onto an AB Sciex triple quad-4500 mass spectrometer system with an Agilent 1290 Infinity Binary Pump and multisampler. Analytes were separated on a reverse phase column Phenomenex Kinetex C18 (50 × 2.1 mm, 5 µm) that was thermostated at 40°C. High-pressure liquid chromatography mobile phase A was 0.5% formic acid in water (pH unadjusted); mobile phase B was 0.5% formic acid in acetonitrile (pH unadjusted). […] The column was re-equilibrated (1 minute) before the next sample injection. The total run time was 2.55 minutes, and the high-pressure liquid chromatography flow rate was 0.5 ml/min. The source temperature was set at 500°C, and mass spectral analyses were performed using a Turbo-Ion spray source in positive ionization mode (5.0-kV spray voltage) and using multiple-reaction monitoring of transitions specific for both analyte (m/z 335.7–236.7 at 35 eV) and internal standard (m/z 237.0–193.9 at 25 eV). Quantitation of VU0542270 was performed via AB Sciex Analyst software using the raw analyte:IS peak area ratios. The typical detection range for VU0542270 was 0.5 ng/mL to ≥5000 ng/mL, utilizing a quadratic equation regression with 1/x^2 weighting.

## Cc1nc(-c2cccs2)sc1CNC(=O)Nc1cccs1 [VU0542270]
Kir2.3
  IC50: > 30 µM
[1]
  fraction unbound at 6 h, 1 µM: 0.02
[2]; male, Sprague Dawley, plasma, 1 mg/kg, rat IV PK
  half-life: 38.4 min
[2]; male, Sprague Dawley, plasma, rat, 1 mg/kg IV, read-out: CLp
  clearance: 17.7 mL/min/kg
[2]; male, Sprague Dawley, plasma, rat, 1 mg/kg IV, read-out: Vss
  Vd: 0.2 L/kg
[2]; male, Sprague Dawley, rat, plasma, 1 mg/kg, 1 mg/kg IV
  MRT: 11.4 min
[2]; male, Sprague Dawley, rat, plasma, 1 mg/kg, rat IV PK
  MRT: 10.2 min
[2]; rat, 1 mg/kg IV
  t1/2: 38.4 min
